In the NIST ThermoML archive (doi:10.1021/je0341357):
Numbers after ± are expanded uncertainties.

Conditions: Liquid; Visual observation in an unstirred cell

Critical temperature [K]	Compound
513.4 ± 0.9	C/C=C\CCC [(Z)-2-hexene]
606.9 ± 0.4	CCC1CCCCC1 [ethylcyclohexane]
499.2 ± 0.4	CCCN [propan-1-amine]
528.7 ± 0.4	C=CCCC(C)C [5-methyl-1-hexene]
653.1 ± 0.4	CCCCC1CCCCC1 [butylcyclohexane]
553.6 ± 1.1	C1CCCCC1 [cyclohexane]
632.2 ± 0.4	CC(C)C1CCCCC1 [(1-methylethyl)cyclohexane]
555.8 ± 1.1	CCCNCCC [dipropylamine]
507.4 ± 2	CC/C=C/CC [(E)-3-hexene]
493.1 ± 0.5	C=CCC(C)C [4-methyl-1-pentene]
566.3 ± 1.1	CCC/C=C/CCC [(E)-4-octene]
510.2 ± 1.4	CC/C=C\CC [(Z)-3-hexene]
607.5 ± 1.1	CCCCNCCCC [dibutylamine]
626.8 ± 0.9	NC1CCCCC1 [cyclohexylamine]
509 ± 0.7	C/C=C/CCC [(E)-2-hexene]
647.5 ± 0.4	C1CCCCCCC1 [cyclooctane]
569.8 ± 0.4	C/C=C/CCCCC [(E)-2-octene]
496.3 ± 0.7	C/C=C\C(C)C [(Z)-4-methyl-2-pentene]

Further lines, the compound ahead of its results:

Compound	Critical temperature [K]
CCCCCCNC [1-hexanamine, N-methyl-]	592 ± 1
CCCCCCN [1-hexanamine]	592.3 ± 0.7
CCCC1CCCCC1 [1-cyclohexylpropane]	630.8 ± 0.9
CC(C)=C(C)C [2,3-dimethyl-2-butene]	521 ± 0.9
C=C(C)C(C)C [2,3-dimethyl-1-butene]	497.7 ± 0.9
CC(C)CC1CCCCC1 [2-methylpropylcyclohexane]	642.1 ± 0.6
C=C(C)CCC [2-methyl-1-pentene]	521 ± 0.4
C=C(C)CCCC [2-methyl-1-hexene]	541.8 ± 1.1
CCCCC=C(C)C [2-methyl-2-heptene]	568.9 ± 1.1
CC(C)(C)C1CCCCC1 [1,1-dimethylethylcyclohexane]	652 ± 0.4
C/C=C\CCCC [2-heptene, (Z)-]	548.5 ± 0.6
CCC=C(C)C [2-methyl-2-pentene]	509.3 ± 0.5
CC/C=C/CCC [3-heptene, (E)-]	538.6 ± 0.7
C=C(C)C(C)CC (centres undefined) [2,3-dimethyl-1-pentene]	533.6 ± 4.3
CCCCCC(C)N (centres undefined) [1-methylhexylamine]	598 ± 2.1
C=C(C)CCCCC [2-methyl-1-heptene]	567.5 ± 0.9
C=CCC(C)(C)C [4,4-dimethyl-1-pentene]	516 ± 4
C=CC(C)(C)C [3,3-dimethyl-1-butene]	477.4 ± 0.9
CC(C)N [2-propanamine]	472.5 ± 0.4
C=C(C)CC [2-methyl-1-butene]	467 ± 0.5
C/C=C/CCCC [2-heptene, (E)-]	542.8 ± 0.4
